From the supplement of paper PMC8882468
± gives the standard deviation of the averaged measurements.

What was measured:
Test in all cases: CTG-3D luminescence at 96 h relative to day-0 seeding control (ratio to day 0); higher = more growth / less cytotoxicity; PDxO 3D drug screen, 96 h, CTG-3D normalised to day-0 seeding control.
[1] = test system: HCI-012 (organoid from a breast cancer xenograft)
[2] = test system: HCI-011.E2 (organoid from an ER-positive breast cancer xenograft)
[3] = test system: HCI-010 (organoid from a breast cancer xenograft)
[4] = test system: HCI-001 (organoid from a triple-negative breast cancer xenograft)
[5] = test system: HCI-027 (organoid from a triple-negative breast cancer xenograft)
[6] = test system: MDA-MB-231

NC1(C(=O)N[C@@H](CCO)c2ccc(Cl)cc2)CCN(c2nc[nH]c3nccc2-3)CC1 [capivasertib]
CTG-3D luminescence at 96 h
Conditions | 12.5 pM | 0.00025 µM | 0.005 µM | 0.1 µM | 1 µM | 10 µM | 100 µM | 625 fM
[1], days in culture: 143 | 2.02 | 1.95 | 1.78 | 2.01 | 1.55 | 0.931 | 0.0899 | 1.91
[1], days in culture: 162 | 2.5 | 2.27 | 1.88 | 2.92 | 1.51 | 1.15 | 0.236 | 3.5
[1], days in culture: 201 | 2.73 | 2.11 | 1.59 | 1.5 | 1.61 | 0.543 | 0.269 | 1.74
[2], days in culture: 74 | 1.84 | 2.07 | 2.01 | 1.54 | 1 | 0.548 | 0.307 | 2.49
[3], days in culture: 52 | 2.05 | 2.33 | 2.4 | 2.54 | 2.01 | 1.78 | 0.545 | 2.15
[3], days in culture: 65 | 1.57 | 1.77 | 1.93 | 1.6 | 1.47 | 1.18 | 0.287 | 1.58
[3], days in culture: 103 | 3.5 | 3.47 | 3.91 | 3.21 | 2.35 | 2.11 | 0.959 | 3.23
[4], days in culture: 240 | 1.55 | 0.986 | 1.1 | 0.601 | 0.604 | 0.407 | 0.382 | 1.02
[4], days in culture: 260 | 2.26 | 1.47 | 1.9 | 1.32 | 0.652 | 0.532 | 0.449 | 1.71
[4], days in culture: 269 | 1.69 | 1.5 | 1.82 | 1.34 | 0.734 | 0.758 | 0.593 | 1.71
[4], days in culture: 327 | 1.71 | 1.3 | 1.7 | 1.35 | 0.84 | 0.552 | 0.71 | 1.81
[4], days in culture: 346 | 1.49 | 1.36 | 1.35 | 1 | 0.937 | 0.678 | 0.809 | 1.33
[4], days in culture: 364 | 1.6 | 1.21 | 1.21 | 0.928 | 0.847 | 0.605 | 0.375 | 1.47
[5], days in culture: 176 | 2.31 | 1.3 | 2.32 | 1.05 | 1.12 | 0.758 | 0.0952 | 2.13
[5], days in culture: 194 | 1.58 | 1.48 | 1.43 | 1.57 | 1.36 | 1.2 | 0.0815 | 1.55
[5], days in culture: 201 | 1.67 | 1.8 | 1.88 | 2.17 | 1.71 | 0.976 | 0.0625 | 1.6

CTG-3D luminescence at 96 h
Conditions | 12.5 pM | 0.00025 µM | 0.005 µM | 0.1 µM | 1 µM | 10 µM | 100 µM | 625 fM
[2] | 1.63 ± 0.22 | 1.67 ± 0.2 | 1.43 ± 0.48 | 1.63 ± 0.41 | 1.05 ± 0.42 | 0.559 ± 0.056 | 0.275 ± 0.02 | 1.8 ± 0.42
[6] | 4.33 ± 1.4 | 4.28 ± 1.4 | 4.42 ± 1.4 | 4.28 ± 1.3 | 4.07 ± 1.2 | 3.88 ± 1 | 2.39 ± 0.74 | 4.44 ± 1.4
